Data reported in patent US7642400B2, “Protein kinase C iota” (Mayo Foundation for Medical Education and Research, priority 2004, dated 2010).

Legend:
[1] = target: T1, interaction of PKCι polypeptides with PAR6 polypeptides (Homo sapiens, UniProt P41743); test: Secondary screen: PYN bound to plate-immobilised biotin-tagged PAR6; type: binding; details: for Secondary Screen: amount of PYN bound to biotin-tagged PAR6 plates
T1 construct: amino acids 1-113 or a full-length PKCι polypeptide; 6xHis; made in house
T1 sequence (P41743 10-122): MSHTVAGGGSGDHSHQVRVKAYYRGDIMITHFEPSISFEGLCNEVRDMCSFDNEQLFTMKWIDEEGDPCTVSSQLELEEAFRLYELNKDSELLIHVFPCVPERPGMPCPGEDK
Procedure: Multiple test compounds that were classified as hits in the primary screen as well as additional related compounds were evaluated in a secondary screen designed as follows. Briefly, a 96-well microtiter plate coated with streptavidin (Nunc #436014) was incubated for 2-4 hours at room temperature with 100 μl of a 20-30 μg/ml solution of biotin-tagged PAR6 (whole polypeptide) in phosphate-buffered saline containing Tween-20 (PBST). Plates were washed twice with PBST, then once with incubation buffer (50 mM Tris, pH 8.0; 135 mM NaCl; 10% glycerol; 0.002% EDTA). Incubation buffer (50 μl) was added to each well. The compounds to be tested were added (10 μl) followed by PYN (50 μl) diluted in incubation buffer to an approximate concentration of 4000-5000 relative fluorescent units per 50 μl. Plates were incubated overnight at 4° C. Plates were washed twice with incubation buffer, after which 50 μl incubation buffer was added to retain moisture in the wells. The amount of PYN bound on the plates was determined by measuring yellow fluorescence (532/526) in a Typhoon imager. Fluorescence was quantitated by Softmax Pro software.
A dose-response analysis was performed using the secondary screening assay and increasing amounts (e.g., 0, 0.1, 1, 10, 100, and […]) of gossypol, hexestrol, thimerosal, ebselen, ATG, ATM, ellagic acid, cisplatin, apomorphine, or phenylmercuric acetate.

[2] = test system: Rac1 activity in A549 cells; test: Rac1 activity assay (affinity isolation of GTP-bound Rac1) in A549 cells; type: cell-based, human
Procedure: Rac 1 Activity Assays: Rac1 activity in A549 and H1299 cell transfectants was assessed by affinity isolation of GTP-bound Rac1 using binding domains of PAK as described previously (Sander et al., J. Cell Biol., 143(5):1385-98 (1998)). Briefly, cells were lysed in lysis buffer (50 mM Tris-HCl pH 7.5, 150 mM NaCl, 20 mM MgCl2, 5 mM EGTA, 10% glycerol, 1% Triton X-100, 1% NP-40, 25 mM NaF, 1 mM phenylmethylsulfonyl fluoride, 1 mM sodium orthovanadate, 10 μg/ml leupeptin, 10 μg/ml aprotinin) at 4° C. for 5 min. Cellular debris was removed by centrifugation at 20,000×g for 5 min, and supernatants were transferred to new tubes containing 20 μl of GST-p21-binding domain of PAK1 (PAK1-PBD) coupled to agarose beads (Upstate). An aliquot of each supernatant was reserved to determine total Rac1 and actin expression by immunoblot analysis. Following a 30-minute incubation at 4° C., the agarose beads were collected by centrifugation and washed three times in wash buffer (50 mM Tris-HCl pH 7.5, 150 mM NaCl, 20 mM MgCl2, 5 mM EGTA, 10% glycerol, 1% Triton X-100, 1% NP-40, 25 mM NaF, 1 mM phenylmethylsulfonyl fluoride, 1 mM sodium orthovanadate, 10 μg/ml leupeptin, 10 μg/ml aprotinin). Bound polypeptides were solubilized by the addition of 30 μl of SDS sample buffer, resolved by SDS-PAGE, and subjected to immunoblot analysis for Rac1. An equivalent aliquot of the total cell lysate was subjected to immunoblot analysis to determine total Rac1 expression.
Rac 1 Activity Assays: A549 cells were incubated with the indicated concentration of ATG for one hour prior to analysis. Rac1 activity in A549 cells was assessed by affinity isolation of GTP-bound Rac1 using binding domains of PAK as described elsewhere (Sander et al., J. Cell Biol., 143:1385-98 (1998)). Briefly, cells were lysed in lysis buffer (50 mM Tris-HCl pH 7.5, 150 mM NaCl, 20 mM MgCl2, 5 mM EGTA, 10% glycerol, 1% Triton X-100, 1% NP-40, 25 mM NaF, 1 mM phenylmethylsulfonyl fluoride, 1 mM sodium orthovanadate, 10 μg/ml leupeptin, and 10 μg/ml aprotinin) at 4° C. for 5 min. […]

Structure (SMILES): OC[C@H]1O[C@H]([S-])[C@H](O)[C@@H](O)[C@@H]1O.[Au+] [Aurothioglucose]
- Secondary Screen [1]: Confirmed
- Secondary Screen ([1]; listed as aurothioglucose): confirmed
- dose-response analysis using the secondary screening assay ([1]; increasing amounts, e.g. 0, 0.1, 1, 10, 100, and 100 μM): dose-dependent response was detected
- Rac1 activity ([2]; A549 cells incubated with ATG for one hour, FIG. 19): decreased Rac1 activity
- dose dependence of Rac1 activity ([2]; A549 cells, less Rac1 activity as ATG concentrations increased): dose-dependent effect on Rac1 activity
